Source: patent publication US20030017166A1, “Combination preparation for the therapy of immunological diseases” (priority 2001, published 2003)

Tests used:
[1] = test system: contact allergy to nickel and cobalt (contact dermatitis); test: Contact dermatitis induced with nickel or cobalt vaseline preparations in volunteer test subjects; format: in vivo, human
From the text: Contact dermatitis was selected as a model disease for the large number of T cell-mediated immune reactions (generally: overshooting damaging immune reactions) since it can be induced by applying the contact allergens to the skin and the severity of the inflammatory reaction and immune reaction can readily be assessed by observing the skin symptoms.
The contact allergies were induced by applying preparations in white vaseline. These vaseline preparations contained either 1% cobaltII chloride or 5% nickelII sulfate.
For inducing the contact dermatitis, the vaseline preparation was applied once daily to an area of approx. 2×2 cm^2, usually on the upper arm or the lower arm.
The contact dermatitis was subdivided into the following levels in accordance with the extent of the inflammatory reaction:
Level 1: very minor inflammatory reaction, slight reddening of the skin;
Level 2: minor inflammatory reaction, reddening of the skin and possible itching;
Level 3: slight inflammatory reaction, reddening and edematous swelling of the skin, itching;
Level 4: moderate inflammatory reaction, reddening, edematous swelling, vesicles or blister formation, itching;
Level 5: pronounced inflammatory reaction: reddening, edematous swelling, vesicles and blister formation, weeping erosions and possible incrustation.
The severity of the inflammatory reaction which occurred was controlled by administering Ultralan® tablets systemically. When the antigen-specific regulatory immune response was induced, the inflammatory reaction was kept in the range of levels 1 and 2 by administering fluocortolone (Ultralan®). If a contact dermatitis of level 3 or higher developed despite the administration of Ultralan®, the dose of Ultralan® was then increased up to the next dosage level. If required, the dose was increased once again 2 days after the last increase in the dose.
As soon as it was no longer possible to observe any symptoms of the contact dermatitis at a given dosage level of Ultralan®, the dose was reduced on the following day and subsequently maintained once again until all the symptoms of the contact allergy had disappeared, after which the dose of Ultralan was reduced once again until, finally, it was no longer necessary to administer any Ultralan®.
As a rule, the following gradations in the daily doses of Ultralan® were employed: 20 mg, 15 mg, 10 mg, 7.5 mg, 5 mg, 2.5 mg and 0 mg.
An appropriate blood level of leflunomide was achieved by means of a loading dose of 100 mg on the first three consecutive days of the leflunomide therapy; after that, the leflunomide dose was reduced to 20 mg per day. Unless otherwise stated, this dose of leflunomide was maintained for up to 30 days after the time point at which the administration of flucortolone was terminated.
Subsequently, the leflunomide was eliminated at an accelerated rate from the body by means of administering 3× daily doses of 8 grams of cholestyramine over a period of 10 days.
As described above, the antigen is applied to the skin once a day using a preparation prepared from white vaseline. As a rule, the antigen was administered up to the tenth day after the last administration of leflunomide.
In the investigations into the development of a regulatory immune response in connection with the contact dermatitis, a fresh exposure to the antigen against which a regulatory immune response had been developed was carried out no earlier than 1 month after the last contact with the antigen.

[2] = test system: allergic rhinitis/conjunctivitis against hazelnut pollen and grass pollen; test: Allergic rhinitis/conjunctivitis on exposure to hazelnut pollen or grass pollen in patients; format: in vivo, human
From the text: The effect of the combination therapy on type I allergy (allergic conjunctivitis and rhinitis) was investigated since type I allergy is an antibody-induced disease which is regulated by T cells. […] In the allergy investigations, contact with the antigen took place aerogenically, by exposure to hazelnut pollen or the pollen of grasses.
First of all, the test subjects were exposed to the allergen pollens in order to verify the existence of the allergy.
After a month, the two test subjects were given a loading dose of in each case 100 mg of leflunomide on 3 consecutive days. The test subjects were then given a constant daily dose of 20 mg of leflunomide.
On the 4th day of the leflunomide administration, the test subjects were exposed to one of the two allergens.
After these 30 days, the leflunomide was eliminated from the body in an accelerated manner by means of the 3× daily administration of cholestyramine over a period of 10 days. During this accelerated elimination, the daily exposure to antigen was continued.
In addition, the test subjects were able to use vasoconstrictors, such as Otriven® nasal drops and Yxin® eyedrops, to alleviate acute symptoms.
Neomycin sulfate was used, at a concentration of 50 mg/ml in physiological sodium chloride solution, as an immunomodulatory substance, as eyedrops and as a metered nasal spray. During the allergen exposure (season of airborne pollen), the neomycin solution was initially administered every 3 hours during the day. As soon as symptoms of an allergic reaction, such as severe itching, tears, flow of nasal secretion or sneezing impulses, occurred, this inflammatory reaction was suppressed, within the first 5 days, by using the dexametasone eyedrops, the dexamethasone nasal spray, xylometazoline nasal drops and Yxin® eyedrops. The steroids and the vasoconstrictors were administered as required.

[3] = test system: susceptibility to infection; details: clinical investigations and investigations on experimental animals; cited from earlier work
rheumatoid arthritis = details: monotherapy; cited from earlier work

In the case of C[C@@H]1C[C@H]2[C@@H]3C[C@H](F)C4=CC(=O)C=C[C@]4(C)[C@H]3[C@@H](O)C[C@]2(C)[C@H]1C(=O)CO [Ultralan®, fluocortolone], the “contact dermatitis while Ultralan was being reduced stepwise” value ([1]; Investigation 1.1, 4 test subjects, Ultralan alone, no leflunomide, continued allergen exposure) is reported as “reappeared”, the “time to complete disappearance of contact allergy symptoms” value ([1]; Investigation 1.1, Ultralan added to leflunomide and allergen, allergy adjusted to grade 1-2) is reported as 3 to 5 days and the “symptoms of contact allergy after brief Ultralan suppression and discontinuation” value ([1]; Investigation 1.5, allergen continued for further 2 weeks after Ultralan discontinued) is reported as “no symptoms of any contact allergy appeared”. The “symptoms of contact allergy after abrupt Ultralan discontinuation” value ([1]; Investigation 2.1, 2 test subjects, fully suppressive Ultralan dose for 4 weeks with leflunomide and allergen, one day after discontinuation) was “Massive symptoms of the contact allergy developed”, the “time to disappearance of symptoms” value ([1]; Investigation 3.2, single administration of 5 mg Ultralan with simultaneous leflunomide) was “one” and the “dose of Ultralan sufficient to restrict the symptoms of the contact allergy to levels 1 to 2” value ([1]; systemic tablets, as a rule) was “at most 10 mg/day”. For the same molecule, the “allergic symptoms immediately after antigen exposure under Ultralan and vasoconstrictors” value ([2]; Investigation 4.1, 10 mg Ultralan, Otriven nasal drops, Yxin eyedrops, with leflunomide) was “only slight symptoms of an allergic reaction” and the “time to complete disappearance of allergy symptoms directly after antigen exposure” value ([2]; Investigation 4.1, constant treatment with Ultralan and leflunomide) was ≤ 4 days.

For C[C@@H]1C[C@H]2[C@@H]3CCC4=CC(=O)C=C[C@]4(C)[C@@]3(F)[C@@H](O)C[C@]2(C)[C@@]1(O)C(=O)CO [dexamethasone], the “requirement for dexamethasone administrations, initial average” value ([2]; Investigation 5.1, under neomycin solution 50 mg/ml every 3 hours, start of first 5 days) was 4 administrations per day and the “requirement for dexamethasone administrations, after decrease” value ([2]; Investigation 5.1, under neomycin solution, within the first 5 days) was 2 administrations per day.

In the case of Cc1oncc1C(=O)Nc1ccc(C(F)(F)F)cc1 [leflunomide, N-(4-trifluoromethylphenyl)-5-methylisoxazole-4-carboxamide], the “symptoms of contact allergy on provocation with the antigen given during leflunomide” value ([1]; Investigation 1.1, 4 weeks after end of treatment cycle, 2 weeks provocation) is reported as “did not appear in any of the test subjects”, the “symptoms of the contact allergy during 30 days of daily leflunomide and antigen” value ([1]; Investigation 1.1, after steroids completely discontinued) is reported as “not possible to observe any symptoms of the contact allergy” and the “symptoms of the contact allergy during accelerated elimination of leflunomide” value ([1]; Investigation 1.1, cholestyramine over 10 days, continued allergen exposure) is reported as “not observed in any of the test subjects”. For the same molecule, the “level of skin reaction (contact dermatitis levels 1-5)” value ([1]; Investigation 1.1, leflunomide 100 mg x 3 days then 20 mg/day, allergen from 4th day, within 2 days, before steroids) was 3 to 4 level, the “level of contact dermatitis on exposure to the antigen not given during leflunomide” value ([1]; Investigation 1.2, 4 weeks later, within 2 days) was 3 to 4 level and the “symptoms of contact allergy to the leflunomide-associated allergen applied on still inflamed skin” value ([1]; Investigation 1.3, allergen switched on 3rd day) was “persisted as long as the contact allergen was being administered”. The “contact allergy on re-exposure to the leflunomide-associated antigen after inflammation regressed” value ([1]; Investigation 1.4, after 4 weeks break, exposure period of 2 weeks) was “did not react with any contact allergy”, the “symptoms of contact allergy after switch to the leflunomide-associated antigen under inflammation” value ([1]; Investigation 1.5, period of 2 weeks) was “persisted” and the “level of contact allergy on exposure to the antigen not given during leflunomide” value ([1]; Investigation 1.5, within 2 days) was 3 to 4 level. For the same molecule, the “symptoms of contact allergy on exposure to the leflunomide-associated allergen” value ([1]; Investigation 1.6, 4 weeks later, first 2 weeks of exposure) was “No symptoms of a contact allergy were observed”, the “time to disappearance of inflammatory reactions after UV-A on the side with contact allergen” value ([1]; Investigation 1.6, continued allergen exposure) was ≥ 7 days and the “symptoms of inflammation after UV-A irradiation on arm with contact allergen versus arm without” value ([1]; Investigation 1.6, identical irradiation of both arms) was “somewhat stronger”. The “course of contact allergy on allergen exposure” value ([1]; Investigation 3.1, shortened 2-week phase, days following first reddening) was “increasing symptoms of a contact allergy”, the “onset of slight reddening after beginning allergen exposure” value ([1]; Investigation 3.1, steroid-free leflunomide plus allergen phase shortened from 30 days to 2 weeks, exposure 4 weeks after discontinuing leflunomide) was 3 to 4 days and the “regulatory immune response 4 weeks after treatment” value ([1]; Investigation 3.3, leflunomide and contact allergen continued for 20 days, then accelerated elimination) was “a stable antigen-specific regulatory immune response had developed”. For the same molecule, the “reaction on first allergen exposure under leflunomide” value ([2]; Investigation 4.1, 2 test subjects, 4th day of leflunomide, before steroid) was “reacted immediately with allergic symptoms”, the “allergy symptoms during steroid-free leflunomide plus antigen phase and accelerated elimination” value ([2]; Investigation 4.1, 30 days plus 10 days cholestyramine, daily antigen) was “no symptoms of an allergy appeared” and the “allergic symptoms on re-exposure to the allergen given during leflunomide” value ([2]; Investigation 4.1, after one month break, daily exposure over 2 weeks) was “did not develop any symptoms of an allergic reaction”. For the same molecule, the “allergy symptoms on exposure to the antigen not given during leflunomide” value ([2]; Investigation 4.2, grass pollen dust 1x daily, within 2 days) was “developed symptoms of an allergy”, the “allergy symptoms to the leflunomide-associated antigen under inflammatory conditions” value ([2]; Investigation 4.3, 3rd and 4th day, only leflunomide-associated antigen administered) was “Symptoms of an allergy developed” and the “allergy symptoms on re-exposure to the leflunomide-associated antigen” value ([2]; Investigation 4.4, after a further 4 weeks, 2 weeks of daily exposure) was “No symptoms of an allergy developed”. For the same molecule, the susceptibility to infection [3] was “does not increase susceptibility to infection” and the “effect on rheumatoid arthritis when administered on its own” value (rheumatoid arthritis) was “able to reduce the progression of rheumatoid arthritis but is not able to cure the disease”.

For Neomycin sulfate, the “allergy symptoms on intensified antigen exposure during neomycin” value ([2]; Investigation 5.1, 2 test subjects, direct exposure to hazelnut pollen twice daily, no dexamethasone or cromoglycic acid) was “no allergy symptoms appeared in either of the test subjects”, the “allergy symptoms on re-exposure to the allergen given during neomycin” value ([2]; Investigation 5.1, after a month break, daily exposure for 2 weeks) was “did not exhibit any allergy symptoms” and the “allergy symptoms on exposure to the antigen not given during neomycin” value ([2]; Investigation 5.2, dust of grass pollens 1x daily, within 2 days) was “developed symptoms of an allergy”. The “allergy symptoms to the neomycin-associated antigen under inflammatory conditions” value ([2]; Investigation 5.3, 3rd and 4th day, only neomycin-associated antigen administered) was “Symptoms of an antigy developed” and the “allergy symptoms on re-exposure to the neomycin-associated antigen” value ([2]; Investigation 5.4, after another break of 4 weeks, 2 weeks of daily exposure) was “had not developed any allergy symptoms”.
